Source: patent US20100179089A1, “Compositions and Methods to Manage the Inflammatory Basis of Chronic Disease Conditions and Maintain an Optimal Immune Response in Elderly” (priority 2009, published 2010)
Read-outs that look alike come from different tables or passages of the source.

Tests used:
muscle protein synthesis [1] = settings: pigs with a sepsis-like syndrome, arginine supplementation; cited from earlier work
muscle protein synthesis [2] = settings: cited from earlier work
protein synthesis = assay: Amino acid supplementation and protein synthesis in normal, inflamed and inflamed with DHA conditions (FIG. 4); settings: conditions of inflammation (FIG. 4)
Source text: Given the observed changes in protein intake and observed changes in protein synthesis in aging, it is believed that a hyperinflammed state compromises protein synthesis and further accentuates chronic disease related to arginine deficiency and malnutrition.
Omega-3 fatty acids, including but not limited to alpha-linolenic acid (ALA), eicosapentaenoic (EPA) and docosahexaenoic acids (DHA); omega-6 linoleic acid; and borage oil (also an omega-6 fatty acid) are currently used in different diets with the intention to improve immune dysfunction. […] Used with omega-3 fatty acids, arginine is believed to be more available to provide a normal response under conditions of inflammation. Dietary intake of omega-3 fatty acids by the elderly may favorably shift the balance in the production of PGE2, via […] and downregulation of arginase (as shown in FIG. 6) and, consequently, help avoid arginine deficiency and thereby improve or maintain optimal immune system function. […] The products of omega-6 fatty acid metabolism are believed to contribute to arginine deficiency and inflammation in this way. There have been numerous studies showing the benefits of dietary omega-3 fatty acids over omega-6 fatty acids in various physiologic conditions including coronary artery disease, chronic inflammatory conditions such as cancer, and other inflammatory mediated states.

N=C(N)NCCC[C@H](N)C(=O)O [arginine]
Muscle protein synthesis (muscle protein synthesis [1]): improved
Muscle protein synthesis (muscle protein synthesis [2]; anesthetized rabbits, infusion): stimulated
Muscle protein breakdown (muscle protein synthesis [2]; post-absorptive rabbits, arginine added to the amino acid solution): unchanged

CC/C=C\C/C=C\C/C=C\C/C=C\C/C=C\C/C=C\CCC(=O)O [DHA, docosahexaenoic acids]
Protein synthesis (protein synthesis): improves the efficacy of arginine delivery in promoting protein synthesis
